Assay results taken from article PMC10413841, “Exploration of Thiourea-Based Scaffolds for the Construction of Bacterial Ureases Inhibitors” (ACS Omega, 2023).
Values joined by “and” are separate entries in the source; they are usually repeats but may differ in a detail not shown here. Equal entries are not always repeated. Where two headings read alike, the source gives them in different places.

Legend:
[1] = test system: live cells of P. mirabilis PCM 543; assay: Whole-cell ureolysis: ammonia release from urea in live cells; type: cell-based, Proteus mirabilis; conditions: urea hydrolysis in live cells, 30 mM urea, 10 mM PBS, read-out: IC50 [μM] (± SD) P. mirabilis cells
Method: Proteus mirabilis PCM 543 was cultured as described for S. pasteurii except for nickel ions—0.3 mM NiCl2 was used in the growth medium. Cells harvested by centrifugation were resuspended in 10 mM PBS and used for urease activity measurements. Assays were conducted in 10 mM PBS containing 30 mM urea and different concentrations of urease inhibitors and ammonia quantified by indophenol assay.

[2] = test system: live cells of S. pasteurii CCM 2056; assay: as above; type: cell-based, Sporosarcina pasteurii; conditions: for IC50: Sporosarcina pasteurii, CCM2056, urea hydrolysis in live cells, 30 mM urea, 10 mM PBS, read-out: IC50 [μM] (± SD) S. pasteurii cells
[3] = target: T1, native S. pasteurii CCM 2056 urease (Sporosarcina pasteurii, UniProt P41020); assay: Inhibition of purified native urease, indophenol (Berthelot) ammonia assay; type: biochemical; conditions: for α quantifier between ESI dissociation constant Ki* and EI dissociation constant Ki / type (mode) of inhibition: purified S. pasteurii urease; for Ki: purified native enzyme, EI dissociation constant from Lineweaver-Burke plots, urea up to 30 mM, 3 mM phosphate buffer
T1 construct: The S. pasteurii CCM 2056 cells were used as the source of a native enzyme; endogenous in cells; host or cells: S. pasteurii CCM 2056 culture; endogenous enzyme purified in house from the sonicated cell extract by five-step chromatography
Method: The kinetic properties of the compounds as potential urease inhibitors were evaluated against native enzyme purified from S. pasteurii CCM 2056 culture. Residual enzyme activity was expressed as ammonia release from urea followed quantitively using the Berthelot reaction. All of the studied structures were reversibly inhibitory, with dissociation constants ranging from submicromolar to moderate micromolar concentrations (Table 1). The α quantifier between the enzyme-substrate-inhibitor complex (ESI) dissociation constant Ki* and the EI dissociation constant Ki [drawing 1] was calculated to determine the influence of substrate binding on the stability of the EI complex. […] For modeled compounds 19, 16, and 29, the values of α were 152.01, 38.04, and 14.52, respectively. […] For comparison, the α value of compound 52 was 1.37.
The S. pasteurii CCM 2056 cells were used as the source of a native enzyme. The culture medium was made of 20 g/L yeast extract. One day after the inoculation, the medium was further supplemented with 1 mM NiCl2 and 1% urea. After 2 more days of growth, the cells were centrifuged and disintegrated via sonication. Enzyme purification from the cell extract was conducted using a five-step chromatographic method as previously reported.[50]
Inhibition of the purified urease was measured using the indophenol assay for ammonia concentration.[65] The kinetic assays in 3 mM phosphate buffer contained the purified enzyme, studied thiourea analogues, and a range of urea concentrations up to saturating 30 mM. Total progress curves were analyzed with the addition of the enzyme at the reaction start. Assays were terminated with the sequential addition of 100 μL of M1 ([…] sodium nitroprusside, 0.53 M phenol) and M2 (0.625 M sodium hydroxide, 47.1 mM sodium hypochlorite) solution to 50 μL of reaction mixture sample. After 15 min of color development, absorbance at 650 nm was measured. […] In order to verify the inhibition mode as well as calculate the dissociation constant for EI complex, Lineweaver–Burke curves were plotted (1/v = f(1/[S])). For noncompetitive or mixed inhibition mode, Ki was calculated from plots of the LB curves slope as a function of inhibitor concentration.

[4] = target: T1, native S. pasteurii CCM 2056 urease; set-up: method as in PMID 25699141; conditions: previously reported; read-out: Ki against purified enzyme from S. pasteurii; cited from earlier work
[5] = target: purified enzyme from P. mirabilis; set-up: method as in PMID 25699141; conditions: previously reported; read-out: Ki against purified enzyme from P. mirabilis; cited from earlier work
[6] = test system: live cells of P. mirabilis PCM 543; set-up: method as in PMID 27550502; conditions: 1 mM acetohydroxamate; remaining ureolysis in P. mirabilis PCM 543; cited from earlier work

T1 sequence (P41022 whole entry): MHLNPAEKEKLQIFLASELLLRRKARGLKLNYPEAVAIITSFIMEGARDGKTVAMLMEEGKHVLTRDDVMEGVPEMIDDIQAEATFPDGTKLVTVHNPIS
T1 sequence (P41021 whole entry, further chain): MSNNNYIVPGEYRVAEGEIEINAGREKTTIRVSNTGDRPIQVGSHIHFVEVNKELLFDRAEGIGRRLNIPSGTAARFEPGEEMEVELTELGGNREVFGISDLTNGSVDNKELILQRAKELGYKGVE
T1 sequence (P41020 whole entry): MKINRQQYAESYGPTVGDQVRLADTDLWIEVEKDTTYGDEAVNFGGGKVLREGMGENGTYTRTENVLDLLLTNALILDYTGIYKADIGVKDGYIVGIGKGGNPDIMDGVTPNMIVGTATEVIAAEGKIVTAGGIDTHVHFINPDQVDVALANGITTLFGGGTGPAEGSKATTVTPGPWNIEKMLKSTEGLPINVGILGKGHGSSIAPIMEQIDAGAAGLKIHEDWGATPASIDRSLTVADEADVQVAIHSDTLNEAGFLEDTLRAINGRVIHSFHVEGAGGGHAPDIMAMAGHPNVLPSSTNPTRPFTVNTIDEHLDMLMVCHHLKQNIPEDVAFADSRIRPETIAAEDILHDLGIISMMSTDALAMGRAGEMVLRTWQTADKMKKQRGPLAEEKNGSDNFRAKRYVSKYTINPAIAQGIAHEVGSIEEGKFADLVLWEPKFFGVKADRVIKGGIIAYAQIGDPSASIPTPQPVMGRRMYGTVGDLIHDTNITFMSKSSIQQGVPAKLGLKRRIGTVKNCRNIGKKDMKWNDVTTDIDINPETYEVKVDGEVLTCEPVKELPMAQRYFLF

For `C/C(=N\NC(N)=S)c1ccccc1` [Compound 19, (E)-2-(1-Phenylethylidene)hydrazine-1-carbothioamide], the IC50 ([1]; Proteus mirabilis) was 568 ± 47.7 µM, the IC50 [2] was 194 ± 12.5 µM and the “α quantifier between ESI dissociation constant Ki* and EI dissociation constant Ki” value [3] was 152.01. For the same molecule, the Ki ([3]; read-out: Ki [μM] (± SD)) was 0.39 µM and 0.391 µM.

In the case of `C/C(=N\NC(N)=S)c1ccc(O)cc1` [Compound 20, (E)-2-(1-(4-Hydroxyphenyl)ethylidene)hydrazine-1-carbothioamide], the IC50 ([1]; Proteus mirabilis) is reported as 513 ± 33.9 µM, the IC50 [2] is reported as 87.6 ± 9.07 µM and the “type (mode) of inhibition” value [3] is reported as “noncompetitive”. It also gave a Ki ([3]; read-out: Ki [μM] (± SD)) of 33.4 ± 2.61 µM.

For `NC(=S)N/N=C(\C=C\c1ccccc1)c1ccccc1` [Compound 21, (E)-2-((E)-1,3-Diphenylallylidene)hydrazine-1-carbothioamide], the IC50 ([1]; Proteus mirabilis) was 519 ± 27.6 µM, the IC50 [2] was 102 ± 8.4 µM and the “type (mode) of inhibition” value [3] was “noncompetitive”. The Ki ([3]; read-out: Ki [μM] (± SD)) was 6.13 ± 0.714 µM.

Work on `Cc1ccc(/C=C/C(=N\NC(N)=S)c2ccccc2)cc1` [Compound 22, (E)-2-((E)-1-Phenyl-3-(p-tolyl)allylidene)hydrazine-1-carbothioamide] yielded an IC50 ([1]; Proteus mirabilis) of 1110 ± 126 µM, an IC50 [2] of 764 ± 50.3 µM and a Ki ([3]; read-out: Ki [μM] (± SD)) of 5.18 ± 0.691 µM.

In the case of `NC(=S)N/N=C(\C=C\c1ccc(Cl)cc1)c1ccccc1` [Compound 23, (E)-2-((E)-3-(4-Chlorophenyl)-1-phenylallylidene)hydrazine-1-carbothioamide], the IC50 ([1]; Proteus mirabilis) is reported as 430 ± 26.9 µM, the IC50 [2] is reported as 58.4 ± 3.21 µM and the Ki ([3]; read-out: Ki [μM] (± SD)) is reported as 14.9 ± 2.01 µM.

Work on `NC(=S)N/N=C(\C=C\c1ccc(F)cc1)c1ccccc1` [Compound 24, (E)-2-((E)-3-(4-Fluorophenyl)-1-phenylallylidene)hydrazine-1-carbothioamide] yielded an IC50 ([1]; Proteus mirabilis) of 510 ± 17.8 µM, an IC50 [2] of 36.2 ± 2.84 µM and a Ki ([3]; read-out: Ki [μM] (± SD)) of 24.2 ± 1.52 µM.

In the case of `NC(=S)N/N=C(\C=C\c1ccccc1)c1ccc(O)cc1` [Compound 25, (E)-2-((E)-1-(4-Hydroxyphenyl)-3-phenylallylidene)hydrazine-1-carbothioamide], the IC50 ([1]; Proteus mirabilis) is reported as 763 ± 41.1 µM, the IC50 [2] is reported as 149 ± 8.7 µM and the “type (mode) of inhibition” value [3] is reported as “noncompetitive”. For the same molecule, the Ki ([3]; read-out: Ki [μM] (± SD)) was 5.4 ± 0.327 µM.

Work on `NNC(=S)N/N=C/c1ccccc1` [Compound 27, (E)-N′-Benzylidenehydrazinecarbothiohydrazide] yielded an IC50 ([1]; Proteus mirabilis) of 544 ± 17.9 µM, an IC50 [2] of 11.6 ± 0.65 µM and a Ki ([3]; read-out: Ki [μM] (± SD)) of 8.31 ± 0.438 µM.

With `Cc1ccc(/C=N/NC(=S)NN)cc1` [Compound 28, (E)-N′-(4-Methylbenzylidene)hydrazinecarbothiohydrazide] the IC50 ([1]; Proteus mirabilis) was 664 ± 35.2 µM, the IC50 [2] was 118 ± 7.7 µM and the Ki ([3]; read-out: Ki [μM] (± SD)) was 13.5 ± 3.16 µM.

`S=C(NCc1ccccc1)Nc1nc(-c2ccccc2)cs1` [Compound 49, 1-Benzyl-3-(4-phenylthiazol-2-yl)thiourea] showed an IC50 ([1]; Proteus mirabilis) of 554 ± 18.8 µM, an IC50 [2] of 476 ± 26.1 µM and a Ki ([3]; read-out: Ki [μM] (± SD)) of 46 ± 3.71 µM.

`COc1ccc(-c2csc(NC(=S)NCc3ccccc3)n2)c(OC)c1` [Compound 51, 1-Benzyl-3-(4-(2,4-dimethoxyphenyl)thiazol-2-yl)thiourea] showed an IC50 ([1]; Proteus mirabilis) of 509 ± 31.6 µM, an IC50 [2] of 326 ± 18.7 µM and a Ki ([3]; Ki [μM] (± SD)) of 22.2 ± 2.66 µM.

With `Oc1ccc(-c2csc(NC(=S)NCc3ccccc3)n2)cc1` [Compound 52, 1-Benzyl-3-(4-(4-hydroxyphenyl)thiazol-2-yl)thiourea] the IC50 ([1]; Proteus mirabilis) was 304 ± 14 µM, the IC50 [1] was 304 ± 13.9 µM and the “fold change of inhibitory activity (IC50) against S. pasteurii cells compared to nonhydroxylated analogue 49” value ([2]; 52 versus 49) was “over 6 fold”. For the same molecule, the IC50 [2] was 76.3 ± 4.5 µM, the “type (mode) of inhibition” value [3] was “noncompetitive inhibition” and the “α quantifier between ESI dissociation constant Ki* and EI dissociation constant Ki” value [3] was 1.37. For the same molecule, the Ki ([3]; read-out: Ki [μM] (± SD)) was 2.76 µM.

Molecule `S=C(NCc1ccccc1)Nc1nc(-c2ccc(Br)cc2)cs1` [Compound 53, 1-Benzyl-3-(4-(4-bromophenyl)thiazol-2-yl)thiourea] has an IC50 ([1]; Proteus mirabilis) of 638 ± 48.2 µM, an IC50 [2] of 416 ± 32.4 µM and a Ki ([3]; read-out: Ki [μM] (± SD)) of 10.7 ± 0.79 µM.

For `CC(=O)NO` [acetohydroxamate], the Ki [4] is given as 3.3 ± 0.4 µM, the Ki [5] is given as 5.7 ± 0.4 µM and the “whole-cell ureolysis reduced to” value [6] is given as 42 ± 6%.
